The source of these data is patent US20210198248A1, “FUMARATE SALT OF 5-((5-METHYL-2-((3,4,5-[…])AMINO)PYRIMIDIN-4-YL)AMINO)-BENZO[D]OXAZOL-2(3H)-ONE” (ASTRAZENECA AB, priority 2018, published 2021).

Series [1] in a line: Dissolution measurements, μ-DISS Profiler, micronized material. The format is physicochemical. The protocol: In general, 0.5 mg of the micronized material was added to the stirred dissolution media (20 mL 0.1 M acetate buffer, pH 4.5, 200 rpm, at 37° C.). The dissolution profiles were generated by measuring the UV absorbance at 280 nm wavelength. The material of interest was evaluated in triplicate.
The particle size of the materials was reduced by micronisation, as follows, using a 2″ Spiral Jet Mill or a 1″ MCOne fluid Jet Mill followed by subsequent particle size distribution (PSD) measurements.
Test substance was fed into the jet mill chamber, via a venturi feed system, by a vibratory feeder. Micronisation was achieved by particle collisions brought about by compressed gas (nitrogen) forced through angled nozzles in the jet mill chamber. Particles of different sizes develop different speeds and momentum and as the particle size is reduced the particles spiral towards the centre of the jet mill and exit via an exhaust into a collection bin. The process parameters that control the particle size, in addition to the inherent properties of the compound to be micronised, are the feed rate, grinding pressure and venturi pressure and these are summarised in Table 2 below.

For a further series, the system named is JAK. Particulars: cell-based assay, WO 2010/085684 page 314; cited from earlier work.

Structures can show the parent of a compound that is named as a salt.

With `Cc1cnc(Nc2cc(C)c(C)c(C)c2)nc1Nc1ccc2oc(=O)[nH]c2c1` [hemi-fumarate salt, 5-((5-methyl-2-((3,4,5-trimethylphenyl)-amino)pyrimidin-4-yl)amino)benzo[d]oxazol-2(3H)-one hemi-fumarate Salt], the “increase in solubility compared to free base” value in series [1] (at 50 minutes, 0.1 M acetate buffer pH 4.5, 37° C., micronized material) was roughly 6 fold. The aqueous solubility result in series [1] (general statement, compared to Compound (I) free base) was “high aqueous solubility”.
Regarding `Cc1cnc(Nc2cc(C)c(C)c(C)c2)nc1Nc1ccc2oc(=O)[nH]c2c1` [Compound (I), 5-((5-methyl-2-((3,4,5-trimethylphenyl)-amino)pyrimidin-4-yl)amino)benzo[d]oxazol-2(3H)-one], the IC50 with JAK was less than 500 nM.
